“And” between values parts separate entries of the source, which are not always exact repeats. Equal entries are not always repeated. The source made the active and inactive calls.
Columns and labels:
Estrogen receptor beta [1] = target: T1, Estrogen receptor beta (Homo sapiens, UniProt Q92731); assay: blockers of SRC-3 recruitment to ERβ – biochemical, ELISA, streptavidin-HRP readout, orthogonal assay, confirmation (AID 1060)
Estrogen receptor = target: T2, Estrogen receptor (Homo sapiens, UniProt P03372);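 also: potency for inhibiting coactivator peptide recruitment to the receptor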
T2 sequence (P03372 whole entry): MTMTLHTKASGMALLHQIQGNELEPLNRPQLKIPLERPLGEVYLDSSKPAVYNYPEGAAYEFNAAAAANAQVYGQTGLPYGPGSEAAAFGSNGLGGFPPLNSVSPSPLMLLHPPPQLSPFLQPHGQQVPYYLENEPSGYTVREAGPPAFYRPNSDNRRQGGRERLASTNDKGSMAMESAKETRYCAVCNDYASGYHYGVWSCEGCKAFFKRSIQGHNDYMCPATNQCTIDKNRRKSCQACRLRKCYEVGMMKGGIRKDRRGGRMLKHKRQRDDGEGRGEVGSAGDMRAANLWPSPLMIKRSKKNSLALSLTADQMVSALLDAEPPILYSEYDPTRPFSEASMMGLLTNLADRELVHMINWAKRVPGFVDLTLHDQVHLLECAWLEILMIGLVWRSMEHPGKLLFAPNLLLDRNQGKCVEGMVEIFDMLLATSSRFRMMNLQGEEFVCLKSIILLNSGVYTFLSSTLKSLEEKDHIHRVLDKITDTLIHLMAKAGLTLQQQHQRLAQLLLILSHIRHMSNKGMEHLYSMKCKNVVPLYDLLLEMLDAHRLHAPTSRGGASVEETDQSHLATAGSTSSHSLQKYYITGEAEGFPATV

Estrogen receptor beta [2] = target: T1, Estrogen receptor beta
[3] = target: T3, DNA repair protein RAD52 homolog (Homo sapiens, UniProt P43351); type: functional, biochemical
T3 sequence (P43351 whole entry): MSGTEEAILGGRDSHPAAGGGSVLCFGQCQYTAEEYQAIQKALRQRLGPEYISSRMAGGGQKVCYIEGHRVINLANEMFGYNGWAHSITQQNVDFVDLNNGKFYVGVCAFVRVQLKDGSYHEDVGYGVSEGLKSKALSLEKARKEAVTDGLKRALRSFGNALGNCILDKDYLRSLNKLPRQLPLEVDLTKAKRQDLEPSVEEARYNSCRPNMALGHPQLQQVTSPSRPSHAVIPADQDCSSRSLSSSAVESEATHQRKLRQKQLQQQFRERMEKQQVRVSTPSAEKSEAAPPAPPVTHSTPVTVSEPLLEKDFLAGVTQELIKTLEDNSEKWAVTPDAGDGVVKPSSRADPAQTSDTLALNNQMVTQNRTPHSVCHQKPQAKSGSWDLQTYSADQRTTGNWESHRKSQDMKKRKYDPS

Vero = assay: mammalian cell viability reduction – secondary assay, cytotoxicity control for West Nile virus antiviral project, dose response (AID 1650); type: functional; settings: Chlorocebus sabaeus
[4] = target: T4, Neuropeptide Y receptor type 1 (Homo sapiens, UniProt P25929); type: functional;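 also: HEK293 cells with a CNG channel challenged with NPY then isoproterenol; potency as antagonist that reverses NPY suppression of cAMP signal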
T4 sequence (P25929 whole entry): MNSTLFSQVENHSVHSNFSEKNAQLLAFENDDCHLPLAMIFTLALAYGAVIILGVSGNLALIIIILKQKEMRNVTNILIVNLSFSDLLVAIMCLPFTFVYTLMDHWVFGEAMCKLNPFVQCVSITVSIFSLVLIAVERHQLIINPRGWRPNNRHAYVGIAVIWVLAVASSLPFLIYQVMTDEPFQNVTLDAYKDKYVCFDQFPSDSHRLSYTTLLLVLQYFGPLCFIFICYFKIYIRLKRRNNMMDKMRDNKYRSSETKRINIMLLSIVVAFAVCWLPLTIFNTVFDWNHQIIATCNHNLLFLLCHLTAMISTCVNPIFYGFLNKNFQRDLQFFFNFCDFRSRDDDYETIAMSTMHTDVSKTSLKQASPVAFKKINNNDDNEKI

[5] = target: T5, Calpain-2 catalytic subunit (Sus scrofa, UniProt P43367); assay: m-calpain protease blockers, concentration series – biochemical, fluorogenic peptide substrate, dose response (AID 1420); type: functional
T5 sequence (P43367 whole entry): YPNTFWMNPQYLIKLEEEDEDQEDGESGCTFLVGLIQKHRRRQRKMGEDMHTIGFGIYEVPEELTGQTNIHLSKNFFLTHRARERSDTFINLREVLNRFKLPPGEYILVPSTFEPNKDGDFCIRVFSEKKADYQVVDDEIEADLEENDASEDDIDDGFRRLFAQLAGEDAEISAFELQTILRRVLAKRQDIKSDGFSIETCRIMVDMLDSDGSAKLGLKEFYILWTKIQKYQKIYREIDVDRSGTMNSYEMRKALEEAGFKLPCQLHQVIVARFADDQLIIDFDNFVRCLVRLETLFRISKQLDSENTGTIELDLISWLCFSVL

[6] = target: T6, Neuropeptide Y receptor type 2 (Homo sapiens, UniProt P49146); type: functional, cell-based;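 also: HEK293 cells expressing the receptor and a CNG channel; stimulus was NPY near EC95 followed by isoproterenol to raise cAMP; antagonist potency measured as restoring cAMP signal that NPY suppresses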
T6 sequence (P49146 whole entry): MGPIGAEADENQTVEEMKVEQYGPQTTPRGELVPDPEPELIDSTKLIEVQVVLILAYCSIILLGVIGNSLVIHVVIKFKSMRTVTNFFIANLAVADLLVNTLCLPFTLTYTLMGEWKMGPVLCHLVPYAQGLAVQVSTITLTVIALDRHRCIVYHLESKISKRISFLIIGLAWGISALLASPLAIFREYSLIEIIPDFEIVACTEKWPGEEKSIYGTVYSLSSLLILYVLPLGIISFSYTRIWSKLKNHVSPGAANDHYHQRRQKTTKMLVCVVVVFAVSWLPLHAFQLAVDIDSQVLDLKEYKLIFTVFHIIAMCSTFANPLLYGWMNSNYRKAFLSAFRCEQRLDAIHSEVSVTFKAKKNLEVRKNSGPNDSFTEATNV

[7] = loss of viability in HepG2 cells – cell-based, CellTiter-Glo, cherry-picked, cytotoxicity control for Shn3 inhibitor project, dose response (AID 624134); type: functional
[8] = luciferase reporter signal reduction – luminescence, H4-C neuroglioblastoma cells, dose response (AID 2458); type: functional, cell-based;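 also: H4 neuroglioblastoma cells stably carrying a luciferase reporter gene fusion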
[9] = Luminescence Cell-Based Dose Response HTS to Identify Inhibitors of 5'UTR Stem-Loop Driven Prion Protein mRNA Translation in H4 Neuroglioblastoma Cells. [Related pubchem assays: 1827 (Project Summary), 1813 (Primary HTS)]; type: functional
[10] = target: Luciferin 4-monooxygenase (Photinus pyralis, UniProt P08659); assay: inhibition of purified Photinus pyralis luciferase – biochemical, luminescence, dose response (AID 1891)
[11] = alpha-synuclein stem-loop translation blockers – luminescence, H4 neuroglioblastoma cells, dose confirmation, confirmation (AID 2454); type: functional, cell-based;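 also: H4 neuroglioblastoma cells carrying an alpha-synuclein 5'UTR luciferase reporter; potency for inhibition of the luciferase signal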
[12] = alpha-synuclein stem-loop luciferase translation blockers – H4 neuroglioma cells, luminescence, confirmation (AID 1988); type: functional, cell-based
[13] = target: T7, Heat shock factor protein 1 (Mus musculus, UniProt P38532); assay: decrease of HSF1-responsive luciferase luminescence – cell-based, NIH3T3, dose retest, confirmation (AID 2382); type: functional;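 also: NIH3T3 fibroblasts with HSF1-driven luciferase reporter stressed by proteasome inhibitor MG132; luminescence from HSF1-driven luciferase expression after 8 hours of MG132 stress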
T7 sequence (P38532 whole entry): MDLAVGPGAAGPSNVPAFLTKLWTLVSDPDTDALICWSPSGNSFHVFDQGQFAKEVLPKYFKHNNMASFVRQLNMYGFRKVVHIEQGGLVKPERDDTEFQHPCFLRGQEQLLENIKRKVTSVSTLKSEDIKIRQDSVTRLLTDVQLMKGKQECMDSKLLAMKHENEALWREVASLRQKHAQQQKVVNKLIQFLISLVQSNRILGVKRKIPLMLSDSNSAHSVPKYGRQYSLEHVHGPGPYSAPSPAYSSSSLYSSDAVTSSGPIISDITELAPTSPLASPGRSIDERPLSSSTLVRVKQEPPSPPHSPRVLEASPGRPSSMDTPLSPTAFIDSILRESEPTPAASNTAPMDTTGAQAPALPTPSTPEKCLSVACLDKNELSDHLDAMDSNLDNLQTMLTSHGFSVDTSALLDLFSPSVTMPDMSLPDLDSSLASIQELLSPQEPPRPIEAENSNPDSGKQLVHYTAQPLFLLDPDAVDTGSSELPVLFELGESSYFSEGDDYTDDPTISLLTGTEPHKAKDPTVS

[14] = Luminescence Cell-Based Dose Confirmation HTS to Identify Inhibitors of Platelet Dense Granule Release. [Related pubchem assays: 1663 (Primary HTS), 1678 (Summary of Project)]; type: functional
[15] = luciferase reporter signal suppression in cells – H4 neuroglioma cells, luminescence, dose response (AID 1990); type: functional, cell-based
cells [16] = type: functional, cell-based
[17] = reduction of Shn3 3'UTR-driven luciferase in osteoblasts – cell-based, Clone20 osteoblasts, firefly luciferase, cherry-picked, dose response (AID 624132); type: functional;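 also: firefly luciferase luminescence from reporter carrying the Shn3 3'UTR in osteoblasts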
[18] = target: T8, Mannose-6-phosphate isomerase (Homo sapiens, UniProt P34949); assay: MPI inhibition at elevated mannose 6-phosphate – biochemical, fluorescence intensity, high mannose 6-phosphate, primary screen (AID 1220)
T8 sequence (P34949 whole entry): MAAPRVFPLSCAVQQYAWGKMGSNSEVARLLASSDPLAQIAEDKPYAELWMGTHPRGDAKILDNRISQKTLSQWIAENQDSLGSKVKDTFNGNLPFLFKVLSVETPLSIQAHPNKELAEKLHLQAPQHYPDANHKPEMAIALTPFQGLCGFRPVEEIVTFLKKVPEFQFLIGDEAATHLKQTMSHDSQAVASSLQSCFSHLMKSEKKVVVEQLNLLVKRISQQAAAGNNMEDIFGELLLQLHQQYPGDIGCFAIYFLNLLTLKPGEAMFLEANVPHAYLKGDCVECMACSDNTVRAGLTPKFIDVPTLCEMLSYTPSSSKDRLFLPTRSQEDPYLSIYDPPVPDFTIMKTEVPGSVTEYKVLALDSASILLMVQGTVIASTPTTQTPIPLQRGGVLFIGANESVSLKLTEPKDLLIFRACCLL

cells [19] = assay: cells
Major prion protein = Major prion protein (Homo sapiens, UniProt P04156); type: functional, cell-based

## CN1C(=O)CSc2ccc(NC(=O)N3CCC(N4CCCCC4)CC3)cc21
Estrogen receptor beta [1]
  IC50: < 77 µM (not active) and < 23 nM (not active)
Estrogen receptor
  IC50: 11.8 µM (active)
Estrogen receptor beta [2]
  IC50: 6.24 µM (active)

## c1ccc(OCc2nnc3sc(C4COc5ccccc5O4)nn23)cc1 (stereo not given)
Estrogen receptor beta [1]
  IC50: < 23 nM (not active)
Estrogen receptor
  IC50: 9.55 µM (active)
Estrogen receptor beta [2]
  IC50: > 50 µM (not active)

## CCN(CC)CCNC(=O)c1cc2c(-c3cccc(OC)c3)nn(C)c2s1
[3]
  AC50: 3.79 µM (active)
Vero
  CC50: > 100 µM (active)

## Cc1nc(-c2ccccc2)sc1C(=O)CSc1ccc(Cl)cc1
[4]
  IC50: 5.4 µM (active)
[5]
  IC50: 11.7 µM (not active)
[6]
  IC50: 6.99 µM (active)

## O=C(Nc1nc2cc3c(cc2s1)OCCO3)C1=COCCO1
[7]
  AC50: 18.1 µM (active)
[8]
  EC50: 0.432 µM (active)
[9]
  EC50: < 0.1 µM (active)
[10]
  EC50: 1.58 µM (active)
[11]
  EC50: 0.411 µM (active)
[12]
  EC50: < 0.1 µM (active)
[13]
  EC50: 1.74 µM (active)
[14]
  EC50: 5.65 µM (active)
[15]
  EC50: < 0.1 µM (active)
Cells [16]
  EC50: 0.669 µM (active)
[17]
  AC50: 2.17 µM (active)

## CCOC(=O)c1c(-c2ccc(C)s2)csc1N
[18]
  IC50: 35.4 µM (active)
Cells [19]
  IC50: > 138 µM (inactive)
Major prion protein
  IC50: 104 µM (inactive)
